Experiment [1] deals with T1, Kras and SOS1 (biotin-tagged human Kras loaded with GDP, His-tagged human SOS1) (Homo sapiens, UniProt P01116, G12D).
T1 construct: made in house; host or cells: E. coli (stated for Kras only)
As to the kind of experiment: Protein-protein interaction inhibition between Kras and SOS1 (KrasGl2D-SOS PPI) using AlphaScreen. The format is binding. The conditions noted are these: AlphaScreen; biotin-tagged human Kras loaded with GDP, His-tagged human SOS1; read-out: KRAS G12D-SOS PPI IC50. The method, boiled down:
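Binding between SOS1 and Kras is detected as bead-proximity luminescence: illuminate Ni-conjugated donors (680 nm), collect 520-620 nm emission from streptavidin-conjugated acceptors; Kras carries biotin and GDP loaded after purification, SOS1 carries a His tag.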

The test system of experiment [2] is Human pancreatic cancer cell line AsPC-1. As to the kind of experiment: Measurement of AsPC-1 cell growth inhibition (AsPC-1 CGI). Format: cell-based. The conditions noted are these: 96 h. Summed up:
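AsPC-1 cells in 15% FBS RPMI-1640 were exposed to test compound for 96 hours at 37° C, with CellTiter-Glo as endpoint.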

Positions of bridges follow the written chain, without caps; N, C: chain ends. Non-standard residues stand in square brackets, D forms with d. Residues, ends and D or L forms follow the SMILES beside them. *: point of attachment. hPhe(3-Cl-4-CF3) = N[C@@H](CCc1ccc(C(F)(F)F)c(Cl)c1)C(=O)O; hPhe(4-CF3) = N[C@@H](CCc1ccc(C(F)(F)F)cc1)C(=O)O; 3Oxa8azabicyclo(3.2.1)octane = C1CC2COCC1N2*; NMePhe(3-Me) = CN[C@@H](Cc1cccc(C)c1)C(=O)O; NMeAla(cPent) = CN[C@@H](CC1CCCC1)C(=O)O; NMeAla(cPr) = CN[C@@H](CC1CC1)C(=O)O; NMeCha = CN[C@@H](CC1CCCCC1)C(=O)O; NMeCba = CN[C@@H](CC1CCC1)C(=O)O; NMeChg = CN[C@H](C(=O)O)C1CCCCC1; NMeD = CN[C@@H](CC(=O)O)C(=O)O; NMeL = CN[C@@H](CC(C)C)C(=O)O; NMeNva = CCC[C@H](NC)C(=O)O; NMeV = CN[C@H](C(=O)O)C(C)C; Iva = CC[C@](C)(N)C(=O)O; NMeA = CN[C@@H](C)C(=O)O; Piperidide = C1CCN(*)CC1; Pyrrolidide = C1CCN(*)C1; Ac5c = NC1(C(=O)O)CCCC1; Aze = O=C(O)[C@@H]1CCN1; Sar = CNCC(=O)O

T1 sequence (P01116 1-188 isoform P01116-2 G12D): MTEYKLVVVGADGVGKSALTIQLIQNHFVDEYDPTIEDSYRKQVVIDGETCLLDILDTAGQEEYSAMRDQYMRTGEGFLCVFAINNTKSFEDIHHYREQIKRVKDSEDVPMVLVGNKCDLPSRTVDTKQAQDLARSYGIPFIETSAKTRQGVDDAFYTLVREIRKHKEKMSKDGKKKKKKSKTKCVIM

Turning to `CC[C@H](C)[C@@H]1NC(=O)[C@H](CC(C)C)N(C)C(=O)C[C@@H](C(=O)N2CCCCC2)N(C)C(=O)[C@H](C(C)C)N(C)C(=O)C2(CCCC2)NC(=O)[C@@H]2CCCN2C(=O)[C@H](CCc2ccc(C(F)(F)F)c(Cl)c2)NC(=O)CN(C)C(=O)[C@H](Cc2cccc(C)c2)N(C)C(=O)CN(C)C(=O)CN(C)C1=O` [Compound 1626] ([NMeL]I[Sar][Sar][NMePhe(3-Me)][Sar][hPhe(3-Cl-4-CF3)]P[Ac5c][NMeV][NMeD]-Piperidide; lactam N-11), the half-inhibitory concentration (IC50) was 4.4 nM in experiment [1] and 100 to 500 nM in experiment [2].
The matching figures for `CC[C@H](C)[C@@H]1NC(=O)[C@H](CC(C)C)N(C)C(=O)C[C@@H](C(=O)N2C3CCC2COC3)N(C)C(=O)[C@H](C2CCCCC2)N(C)C(=O)C2(CCCC2)NC(=O)[C@@H]2CCCN2C(=O)[C@H](CCc2ccc(C(F)(F)F)c(Cl)c2)NC(=O)CN(C)C(=O)[C@H](CC2CCCC2)N(C)C(=O)CN(C)C(=O)CN(C)C1=O` [Compound 1976] ([NMeL]I[Sar][Sar][NMeAla(cPent)][Sar][hPhe(3-Cl-4-CF3)]P[Ac5c][NMeChg][NMeD]-{3Oxa8azabicyclo(3.2.1)octane}; lactam N-11): 1.5 nM and 100 to 500 nM.
Regarding `CC[C@H](C)[C@@H]1NC(=O)[C@H](CC(C)C)N(C)C(=O)C[C@@H](C(=O)N2CCCC2)N(C)C(=O)[C@H](C2CCCCC2)N(C)C(=O)C2(CCCC2)NC(=O)[C@@H]2CCCN2C(=O)[C@H](CCc2ccc(C(F)(F)F)cc2)NC(=O)CN(C)C(=O)[C@H](CC2CCCCC2)N(C)C(=O)CN(C)C(=O)CN(C)C1=O` [Compound 1939] ([NMeL]I[Sar][Sar][NMeCha][Sar][hPhe(4-CF3)]P[Ac5c][NMeChg][NMeD]-Pyrrolidide; lactam N-11), the values for the half-inhibitory concentration (IC50) in experiment [1] and in experiment [2] were 0.71 nM and 100 to 500 nM, respectively.
As for `CC[C@H](C)[C@@H]1NC(=O)[C@H](C2CCCCC2)N(C)C(=O)C[C@@H](C(=O)N2CCCCC2)N(C)C(=O)[C@H](C(C)C)N(C)C(=O)C2(CCCC2)NC(=O)[C@@H]2CCCN2C(=O)[C@H](CCc2ccc(C(F)(F)F)c(Cl)c2)NC(=O)CN(C)C(=O)[C@H](CC2CCCCC2)N(C)C(=O)CN(C)C(=O)CN(C)C1=O` [Compound 106] ([NMeChg]I[Sar][Sar][NMeCha][Sar][hPhe(3-Cl-4-CF3)]P[Ac5c][NMeV][NMeD]-Piperidide; lactam N-11), the IC50 in experiment [1] was 8.9 nM; in experiment [2] it was 100 to 500 nM.
The corresponding values for `CC[C@H](C)[C@@H]1NC(=O)[C@H](CC(C)C)N(C)C(=O)C[C@@H](C(=O)N2CCCCC2)N(C)C(=O)[C@H](C(C)C)N(C)C(=O)[C@](C)(CC)NC(=O)[C@@H]2CCCN2C(=O)[C@H](CCc2ccc(C(F)(F)F)c(Cl)c2)NC(=O)CN(C)C(=O)[C@H](CC2CCCCC2)N(C)C(=O)CN(C)C(=O)CN(C)C1=O` [Compound 620] ([NMeL]I[Sar][Sar][NMeCha][Sar][hPhe(3-Cl-4-CF3)]P[Iva][NMeV][NMeD]-Piperidide; lactam N-11) are 11 nM and 100 to 500 nM.
Take `CC[C@H](C)[C@@H]1NC(=O)[C@H](CC2CC2)N(C)C(=O)C[C@@H](C(=O)N2CCCCC2)N(C)C(=O)[C@H](C(C)C)N(C)C(=O)C2(CCCC2)NC(=O)[C@@H]2CCCN2C(=O)[C@H](CCc2ccc(C(F)(F)F)c(Cl)c2)NC(=O)CN(C)C(=O)[C@H](CC2CCCCC2)N(C)C(=O)CN(C)C(=O)CN(C)C1=O` [Compound 561] ([NMeAla(cPr)]I[Sar][Sar][NMeCha][Sar][hPhe(3-Cl-4-CF3)]P[Ac5c][NMeV][NMeD]-Piperidide; lactam N-11): the IC50 was 3.4 nM in experiment [1] and 100 to 500 nM in experiment [2].
The corresponding values for `CCC[C@H]1C(=O)N(C)[C@H](C(=O)N2CCCCC2)CC(=O)N(C)[C@@H](CC(C)C)C(=O)N[C@@H]([C@@H](C)CC)C(=O)N(C)CC(=O)N(C)CC(=O)N(C)[C@@H](CC2CCCCC2)C(=O)N(C)CC(=O)N[C@@H](CCc2ccc(C(F)(F)F)c(Cl)c2)C(=O)N2CCC[C@H]2C(=O)NC2(CCCC2)C(=O)N1C` [Compound 548] ([NMeL]I[Sar][Sar][NMeCha][Sar][hPhe(3-Cl-4-CF3)]P[Ac5c][NMeNva][NMeD]-Piperidide; lactam N-11) are 1.6 nM and 100 to 500 nM.
In the case of `CC[C@H](C)[C@@H]1NC(=O)[C@H](CC2CCC2)N(C)C(=O)C[C@@H](C(=O)N2CCCCC2)N(C)C(=O)[C@H](C(C)C)N(C)C(=O)C2(CCCC2)NC(=O)[C@@H]2CCCN2C(=O)[C@H](CCc2ccc(C(F)(F)F)c(Cl)c2)NC(=O)CN(C)C(=O)[C@H](CC2CCCCC2)N(C)C(=O)[C@@H]2CCN2C(=O)[C@H](C)N(C)C1=O` [Compound 1114] ([NMeCba]I[NMeA][Aze][NMeCha][Sar][hPhe(3-Cl-4-CF3)]P[Ac5c][NMeV][NMeD]-Piperidide; lactam N-11), the IC50 was 11 nM in experiment [1] and 100 to 500 nM in experiment [2].

Source of the values: patent US12371454B2, “Cyclic peptide compound having Kras inhibitory action” (priority 2019, dated 2025).
